Laboratory results as given in ChEMBL document CHEMBL6087459 (J Med Chem, 2025).
Calls of active or inactive are those of the source. No cut-off for these calls is given here.

How the values were obtained:
Cryptosporidium parvum [1] = assay: Antiparasitic activity against Cryptosporidium parvum Iowa oocyst infected in human HCT-8 cells assessed as reduction in asexual replication pre-infected with cells for 3 hrs followed by compound addition and measured after 48 hrs by staining based automated fluorescence microscopic analysis; format: functional, organism-based
HCT-8 [2] = assay: Cytotoxicity against human HCT-8 cells assessed as reduction in cell numbers upto 50 uM incubated for 48 hrs by high-density microscopic celltiter aqueous assay; format: toxicity, cell-based; conditions: hct-8, 48 h
Homo sapiens [3] = species: Homo sapiens; assay: Inhibition of human PDE4A1A at 10 uM by Eurofins kinase assay relative to control
[4] = molecular target: cAMP and cAMP-inhibited cGMP 3',5'-cyclic phosphodiesterase 10A (Homo sapiens) (UniProt Q9Y233); assay: Inhibition of human PDE10A2 at 10 uM by Eurofins kinase assay relative to control
[5] = molecular target: cGMP-specific 3',5'-cyclic phosphodiesterase (Homo sapiens) (UniProt O76074); assay: Inhibition of human PDE5 at 10 uM by Eurofins kinase assay relative to control
[6] = molecular target: 3',5'-cyclic-AMP phosphodiesterase 4D (Homo sapiens, UniProt Q08499); assay: Inhibition of human PDE4D2 at 10 uM by Eurofins kinase assay relative to control
Sequence of 3',5'-cyclic-AMP phosphodiesterase 4D (Q08499 whole entry): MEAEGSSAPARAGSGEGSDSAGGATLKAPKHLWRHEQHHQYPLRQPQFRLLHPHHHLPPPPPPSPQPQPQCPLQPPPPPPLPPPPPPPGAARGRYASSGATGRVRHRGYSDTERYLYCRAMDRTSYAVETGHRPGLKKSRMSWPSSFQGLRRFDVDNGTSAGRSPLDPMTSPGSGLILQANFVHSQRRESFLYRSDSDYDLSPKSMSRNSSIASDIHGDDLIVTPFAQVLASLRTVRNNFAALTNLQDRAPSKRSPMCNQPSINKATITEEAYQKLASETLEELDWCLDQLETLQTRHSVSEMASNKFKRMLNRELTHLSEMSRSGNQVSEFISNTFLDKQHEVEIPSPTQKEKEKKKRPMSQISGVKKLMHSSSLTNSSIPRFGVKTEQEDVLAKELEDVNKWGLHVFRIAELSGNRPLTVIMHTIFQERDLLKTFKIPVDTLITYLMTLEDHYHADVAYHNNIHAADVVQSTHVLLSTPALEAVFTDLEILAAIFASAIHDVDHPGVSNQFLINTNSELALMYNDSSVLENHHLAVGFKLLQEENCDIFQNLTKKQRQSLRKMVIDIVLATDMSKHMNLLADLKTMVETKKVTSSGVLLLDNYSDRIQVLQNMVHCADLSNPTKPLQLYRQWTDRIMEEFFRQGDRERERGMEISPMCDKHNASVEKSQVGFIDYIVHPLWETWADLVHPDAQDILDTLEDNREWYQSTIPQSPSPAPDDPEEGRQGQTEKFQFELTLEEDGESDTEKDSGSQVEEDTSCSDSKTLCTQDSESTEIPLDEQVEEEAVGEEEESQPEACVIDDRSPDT

[7] = molecular target: cGMP-dependent 3',5'-cyclic phosphodiesterase (Homo sapiens) (UniProt O00408); assay: Inhibition of human PDE2A1 at 10 uM by Eurofins kinase assay relative to control
Sequence of cGMP-dependent 3',5'-cyclic phosphodiesterase (Homo sapiens) (O00408 whole entry): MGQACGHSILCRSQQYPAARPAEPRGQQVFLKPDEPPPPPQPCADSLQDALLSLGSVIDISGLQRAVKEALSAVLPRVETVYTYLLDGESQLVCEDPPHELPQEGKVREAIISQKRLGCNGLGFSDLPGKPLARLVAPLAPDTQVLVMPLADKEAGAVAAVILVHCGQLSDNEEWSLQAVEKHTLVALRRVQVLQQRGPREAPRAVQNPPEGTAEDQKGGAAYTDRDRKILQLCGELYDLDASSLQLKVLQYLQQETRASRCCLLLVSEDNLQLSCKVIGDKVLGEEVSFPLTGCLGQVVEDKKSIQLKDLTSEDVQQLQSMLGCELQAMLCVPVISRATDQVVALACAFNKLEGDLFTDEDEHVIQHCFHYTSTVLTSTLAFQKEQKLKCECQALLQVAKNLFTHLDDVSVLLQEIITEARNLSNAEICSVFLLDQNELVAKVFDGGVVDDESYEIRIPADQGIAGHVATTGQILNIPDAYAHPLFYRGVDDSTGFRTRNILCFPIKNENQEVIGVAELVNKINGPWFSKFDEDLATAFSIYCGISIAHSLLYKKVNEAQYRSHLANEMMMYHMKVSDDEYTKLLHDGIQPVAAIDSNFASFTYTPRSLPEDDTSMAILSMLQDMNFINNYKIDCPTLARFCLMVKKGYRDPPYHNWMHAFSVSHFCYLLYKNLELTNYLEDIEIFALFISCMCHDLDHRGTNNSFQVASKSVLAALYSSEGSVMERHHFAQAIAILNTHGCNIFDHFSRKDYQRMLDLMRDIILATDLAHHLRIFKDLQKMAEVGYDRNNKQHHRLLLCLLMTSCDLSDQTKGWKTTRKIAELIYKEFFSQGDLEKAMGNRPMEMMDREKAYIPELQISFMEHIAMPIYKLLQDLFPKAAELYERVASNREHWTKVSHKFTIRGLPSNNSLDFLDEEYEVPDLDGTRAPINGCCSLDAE

[8] = molecular target: cGMP-inhibited 3',5'-cyclic phosphodiesterase 3A (Homo sapiens) (UniProt Q14432); assay: Inhibition of human PDE3A at 10 uM by Eurofins kinase assay relative to control
[9] = molecular target: High affinity cAMP-specific and IBMX-insensitive 3',5'-cyclic phosphodiesterase 8A (Homo sapiens) (UniProt O60658); assay: Inhibition of human PDE8A1 at 10 uM by Eurofins kinase assay relative to control
Sequence of High affinity cAMP-specific and IBMX-insensitive 3',5'-cyclic phosphodiesterase 8A (Homo sapiens) (O60658 whole entry): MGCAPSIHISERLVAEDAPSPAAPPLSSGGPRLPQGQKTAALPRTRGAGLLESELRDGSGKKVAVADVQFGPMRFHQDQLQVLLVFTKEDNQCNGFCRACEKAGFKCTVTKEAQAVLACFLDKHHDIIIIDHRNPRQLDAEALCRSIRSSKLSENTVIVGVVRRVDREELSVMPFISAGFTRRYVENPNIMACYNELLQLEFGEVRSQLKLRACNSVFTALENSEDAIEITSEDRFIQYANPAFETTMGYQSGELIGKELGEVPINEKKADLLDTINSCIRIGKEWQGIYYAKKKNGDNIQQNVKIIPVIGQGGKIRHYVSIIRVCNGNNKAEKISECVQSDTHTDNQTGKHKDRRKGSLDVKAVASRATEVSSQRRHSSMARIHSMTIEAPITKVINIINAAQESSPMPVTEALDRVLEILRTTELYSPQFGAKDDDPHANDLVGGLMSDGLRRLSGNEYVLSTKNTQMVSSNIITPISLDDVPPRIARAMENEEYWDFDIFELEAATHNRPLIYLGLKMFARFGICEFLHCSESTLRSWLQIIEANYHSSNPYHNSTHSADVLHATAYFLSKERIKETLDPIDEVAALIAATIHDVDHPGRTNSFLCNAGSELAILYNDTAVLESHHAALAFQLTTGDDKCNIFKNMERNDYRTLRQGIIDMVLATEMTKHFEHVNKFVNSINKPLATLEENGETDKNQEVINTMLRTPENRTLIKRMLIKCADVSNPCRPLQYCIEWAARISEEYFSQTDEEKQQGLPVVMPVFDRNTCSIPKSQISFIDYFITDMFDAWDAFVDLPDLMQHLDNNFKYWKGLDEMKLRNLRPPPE

Homo sapiens [10] = species: Homo sapiens; assay: Inhibition of human PDE1B at 10 uM by Eurofins kinase assay relative to control
[11] = molecular target: High affinity 3',5'-cyclic-AMP phosphodiesterase 7A (Homo sapiens) (UniProt Q13946); assay: Inhibition of human PDE7A1 at 10 uM by Eurofins kinase assay relative to control
Sequence of High affinity 3',5'-cyclic-AMP phosphodiesterase 7A (Homo sapiens) (Q13946 whole entry): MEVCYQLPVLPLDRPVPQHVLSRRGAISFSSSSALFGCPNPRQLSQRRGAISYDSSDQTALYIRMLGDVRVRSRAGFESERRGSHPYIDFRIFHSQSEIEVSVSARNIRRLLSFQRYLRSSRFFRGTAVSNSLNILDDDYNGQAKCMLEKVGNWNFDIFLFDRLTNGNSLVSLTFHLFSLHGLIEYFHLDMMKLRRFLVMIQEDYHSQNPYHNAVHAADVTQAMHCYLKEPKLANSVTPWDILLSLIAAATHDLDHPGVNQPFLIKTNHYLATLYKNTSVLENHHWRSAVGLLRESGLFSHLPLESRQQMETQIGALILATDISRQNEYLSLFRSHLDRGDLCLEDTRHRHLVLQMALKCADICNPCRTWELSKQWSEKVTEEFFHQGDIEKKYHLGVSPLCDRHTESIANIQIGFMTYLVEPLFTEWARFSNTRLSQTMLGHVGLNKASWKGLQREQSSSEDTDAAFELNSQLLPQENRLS

[12] = molecular target: cGMP-inhibited 3',5'-cyclic phosphodiesterase 3B (Homo sapiens) (UniProt Q13370); assay: Inhibition of human PDE3B at 10 uM by Eurofins kinase assay relative to control
Sequence of cGMP-inhibited 3',5'-cyclic phosphodiesterase 3B (Homo sapiens) (Q13370 whole entry, looked up): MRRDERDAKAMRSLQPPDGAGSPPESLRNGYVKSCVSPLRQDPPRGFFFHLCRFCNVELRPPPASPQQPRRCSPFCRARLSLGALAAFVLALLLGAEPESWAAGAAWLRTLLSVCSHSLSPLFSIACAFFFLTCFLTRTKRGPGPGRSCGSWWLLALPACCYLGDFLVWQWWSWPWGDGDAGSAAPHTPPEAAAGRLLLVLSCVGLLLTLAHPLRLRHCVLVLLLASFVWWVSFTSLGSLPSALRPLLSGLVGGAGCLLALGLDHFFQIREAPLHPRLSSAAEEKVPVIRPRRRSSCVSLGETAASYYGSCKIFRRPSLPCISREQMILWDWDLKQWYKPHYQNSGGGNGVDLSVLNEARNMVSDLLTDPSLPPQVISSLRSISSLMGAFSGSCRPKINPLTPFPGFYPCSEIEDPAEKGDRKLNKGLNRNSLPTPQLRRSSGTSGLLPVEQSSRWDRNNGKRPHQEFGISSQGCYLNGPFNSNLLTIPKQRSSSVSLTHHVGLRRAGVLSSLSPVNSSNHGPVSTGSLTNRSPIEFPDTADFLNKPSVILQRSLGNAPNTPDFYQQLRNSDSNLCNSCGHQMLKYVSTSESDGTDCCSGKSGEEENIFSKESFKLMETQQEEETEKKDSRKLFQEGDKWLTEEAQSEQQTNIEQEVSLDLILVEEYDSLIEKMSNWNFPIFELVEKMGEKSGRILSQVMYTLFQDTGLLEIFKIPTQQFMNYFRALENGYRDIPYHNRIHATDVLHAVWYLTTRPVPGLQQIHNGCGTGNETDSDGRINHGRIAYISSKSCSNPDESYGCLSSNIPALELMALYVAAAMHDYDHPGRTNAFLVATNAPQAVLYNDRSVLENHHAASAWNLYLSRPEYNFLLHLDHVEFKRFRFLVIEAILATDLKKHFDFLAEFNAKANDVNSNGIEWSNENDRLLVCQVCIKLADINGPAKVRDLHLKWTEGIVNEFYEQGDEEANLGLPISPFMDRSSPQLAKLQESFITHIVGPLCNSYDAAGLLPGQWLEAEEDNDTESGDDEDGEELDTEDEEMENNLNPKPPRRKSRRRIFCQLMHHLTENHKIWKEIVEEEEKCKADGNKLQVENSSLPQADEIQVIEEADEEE

[13] = molecular target: 3',5'-cyclic-AMP phosphodiesterase 4B (Homo sapiens) (UniProt Q07343); assay: Inhibition of human PDE4B1 at 10 uM by Eurofins kinase assay relative to control
Sequence of 3',5'-cyclic-AMP phosphodiesterase 4B (Homo sapiens) (Q07343 whole entry): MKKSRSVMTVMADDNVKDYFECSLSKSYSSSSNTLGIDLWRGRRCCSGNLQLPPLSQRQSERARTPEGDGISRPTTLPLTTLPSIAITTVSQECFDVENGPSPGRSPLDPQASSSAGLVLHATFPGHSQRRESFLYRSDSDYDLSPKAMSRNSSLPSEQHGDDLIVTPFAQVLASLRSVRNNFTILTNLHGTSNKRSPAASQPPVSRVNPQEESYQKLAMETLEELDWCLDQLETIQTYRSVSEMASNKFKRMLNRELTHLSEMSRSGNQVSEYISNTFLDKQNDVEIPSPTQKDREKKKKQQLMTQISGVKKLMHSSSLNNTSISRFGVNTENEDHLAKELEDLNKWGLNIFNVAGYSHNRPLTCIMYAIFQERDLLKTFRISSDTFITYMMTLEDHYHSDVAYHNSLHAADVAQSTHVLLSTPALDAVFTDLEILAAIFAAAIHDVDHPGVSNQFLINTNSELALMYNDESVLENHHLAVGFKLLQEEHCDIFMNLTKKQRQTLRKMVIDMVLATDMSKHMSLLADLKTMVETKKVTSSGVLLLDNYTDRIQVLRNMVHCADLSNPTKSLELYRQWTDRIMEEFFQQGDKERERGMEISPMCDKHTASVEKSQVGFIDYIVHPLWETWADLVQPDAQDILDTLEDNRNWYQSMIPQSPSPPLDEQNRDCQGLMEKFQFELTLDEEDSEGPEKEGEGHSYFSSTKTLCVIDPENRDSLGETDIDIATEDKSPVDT

Homo sapiens [14] = species: Homo sapiens; assay: Inhibition of human PDE6 at 10 uM by Eurofins kinase assay relative to control
Cryptosporidium parvum [15] = assay: Antiparasitic activity against Cryptosporidium parvum Iowa oocyst infected in NOD SCID gamma mouse model assessed as reduction in parasite fecal shedding at 50 mg/kg, po administered twice daily for 7 days starting from day 7 post infection and measured on day 21 by qPCR analysis; format: functional, organism-based; conditions: time 14.0 day
[16] = molecular target: Dual 3',5'-cyclic-AMP and -GMP phosphodiesterase 11A (Homo sapiens) (UniProt Q9HCR9); assay: Inhibition of human PDE11A at 10 uM by Eurofins kinase assay relative to control
HCT-8 [17] = assay: Cytotoxicity against human HCT-8 cells assessed as reduction in cell numbers at 25 uM incubated for 48 hrs by high-density microscopic celltiter aqueous assay relative to control; format: toxicity, cell-based; design: scale not given: the % may be the effect or the level left; conditions: hct-8, 48 h
HCT-8 [18] = assay: Cytotoxicity against human HCT-8 cells assessed as inhibition of cell proliferation at 25 to 50 uM incubated for 48 hrs by Celltiter aqueous assay; format: toxicity, cell-based; conditions: hct-8, 48 h, dose 25-50 µM
HCT-8 [19] = assay: Cytotoxicity against human HCT-8 cells assessed as reduction in cell numbers at 50 uM incubated for 48 hrs by high-density microscopic celltiter aqueous assay relative to control; format: toxicity, cell-based; design: scale not given: the % may be the effect or the level left; conditions: hct-8, 48 h
Cytochrome P450 2B6 = Cytochrome P450 2B6 (Homo sapiens, UniProt P20813); assay: Inhibition of CYP2B6 (unknown origin) incubated for 20 mins by fast gradient LC-MS analysis

In the case of `CCc1nn(C)c2nc(-c3ccccc3OC)nc(NCc3ccc(F)cc3)c12`, the EC50 (Cryptosporidium parvum [1]) is reported as 7.7 µM and the Activity (HCT-8 [2]) is reported as “Non-toxic”.

For `CCc1nn(C)c2nc(-c3ccc4c(c3)COC4=O)nc(NCc3ccc(F)cc3)c12`, the EC50 (Cryptosporidium parvum [1]) was greater than 50 µM and the Activity (HCT-8 [2]) was “Non-toxic”.

With `CCc1nn(C)c2ncnc(NCc3ccc(F)cc3)c12` the EC50 (Cryptosporidium parvum [1]) was greater than 50 µM and the Activity (HCT-8 [2]) was “Non-toxic”.

In the case of `CCc1nn(C)c2nc(-c3ccc(O)cc3)nc(NCc3ccc(F)cc3)c12`, the EC50 (Cryptosporidium parvum [1]) is reported as 5 µM and the Activity (HCT-8 [2]) is reported as “Non-toxic”.

For `CCOC(=O)c1cccc(-c2nc(NCc3ccc(F)cc3)c3c(CC)nn(C)c3n2)c1`, the EC50 (Cryptosporidium parvum [1]) was 5.5 µM and the Activity (HCT-8 [2]) was “Non-toxic”.

With `CCc1nn(C)c2nc(-c3ccccc3)nc(NCc3ccc(F)cc3)c12` the EC50 (Cryptosporidium parvum [1]) was 16 µM and the Activity (HCT-8 [2]) was “Non-toxic”.

For `CCc1nn(C)c2nc(-c3ccc(C(=O)N4CCNCC4)cc3)nc(NCc3ccc(F)cc3)c12`, the EC50 (Cryptosporidium parvum [1]) was 5.7 µM and the Activity (HCT-8 [2]) was “Non-toxic”.

In the case of `CCc1nn(C)c2nc(-c3ccc(Nc4ccc(C(=O)O)cn4)cc3)nc(NCc3ccc(F)cc3)c12`, the EC50 (Cryptosporidium parvum [1]) is reported as 2.9 µM and the Activity (HCT-8 [2]) is reported as “Non-toxic”.

In the case of `CCc1nn(C)c2nc(-c3ccc(F)c(C(=O)O)c3)nc(NCc3ccc(F)cc3)c12`, the EC50 (Cryptosporidium parvum [1]) is reported as 5.2 µM and the Activity (HCT-8 [2]) is reported as “Non-toxic”.

With `CCc1nn(C)c2nc(C3=CCC(C(=O)O)CC3)nc(NCc3ccc(F)cc3)c12` (stereo not drawn) the EC50 (Cryptosporidium parvum [1]) was 1.8 µM and the Activity (HCT-8 [2]) was “Non-toxic”.

With `CCc1nn(C)c2nc(C(=O)O)nc(NCc3ccc(F)cc3)c12` the EC50 (Cryptosporidium parvum [1]) was greater than 50 µM and the Activity (HCT-8 [2]) was “Non-toxic”.

In the case of `CCc1nn(C)c2nc(-c3ccc(S(C)(=O)=O)cc3)nc(NCc3ccc(F)cc3)c12`, the EC50 (Cryptosporidium parvum [1]) is reported as 5.5 µM and the Activity (HCT-8 [2]) is reported as “Non-toxic”.

With `CCc1nn(C)c2nc(-c3ccc(P(=O)(O)O)cc3)nc(NCc3ccc(F)cc3)c12` the EC50 (Cryptosporidium parvum [1]) was greater than 50 µM and the Activity (HCT-8 [2]) was “Non-toxic”.

In the case of `CCc1nn(C)c2nc(-c3ccc(Cl)c(Cl)c3)nc(NCc3ccc(F)cc3)c12`, the EC50 (Cryptosporidium parvum [1]) is reported as 21 µM and the Activity (HCT-8 [2]) is reported as “Non-toxic”.

`CCc1nn(C)c2nc(-c3ccc4c(c3)COB4O)nc(NCc3ccc(F)cc3)c12` showed an inhibition (Homo sapiens [3]) of 54%, an inhibition [4] of -5.5% and an inhibition [5] of 80%. For the same molecule, the inhibition [6] was 27%, the inhibition [7] was 32% and the inhibition [8] was 17%. For the same molecule, the inhibition [9] was 20%, the inhibition (Homo sapiens [10]) was -7.2% and the Activity (HCT-8 [2]) was “Non-toxic”. It also gave an inhibition [11] of 23%, an inhibition [12] of 8% and an inhibition [13] of 73%. The inhibition (Homo sapiens [14]) was 63% and the Activity (Cryptosporidium parvum [15]) was “Active”.

With `CCc1nn(C)c2nc(-c3ccc4c(c3)CNC4=O)nc(NCc3ccc(F)cc3)c12` the EC50 (Cryptosporidium parvum [1]) was greater than 50 µM and the Activity (HCT-8 [2]) was “Non-toxic”.

For `CCc1nn(C)c2nc(-c3ccc(N4CCC(C(=O)O)CC4)cc3)nc(NCc3ccc(F)cc3)c12`, the EC50 (Cryptosporidium parvum [1]) was 11 µM and the Activity (HCT-8 [2]) was “Non-toxic”.

In the case of `CC(=O)Oc1ccccc1C(=O)Nc1ncc([N+](=O)[O-])s1` [NITAZOXANIDE], the Activity (HCT-8 [2]) is reported as “Non-toxic”.

Work on `CCc1nn(C)c2nc(-c3ccc(B(O)O)cc3)nc(NCc3ccc(F)cc3)c12` yielded an EC50 (Cryptosporidium parvum [1]) of 0.78 µM, an inhibition [16] of 82% and an inhibition (Homo sapiens [3]) of 93%. For the same molecule, the inhibition [4] was 24%, the inhibition [5] was 73% and the inhibition [6] was 91%. For the same molecule, the inhibition [7] was 95%, the inhibition [8] was 62% and the inhibition [9] was 29%. For the same molecule, the inhibition (Homo sapiens [10]) was 31%, the Activity (HCT-8 [2]) was “Non-toxic” and the inhibition [11] was 62%. For the same molecule, the inhibition [12] was 45%, the inhibition [13] was 96% and the inhibition (Homo sapiens [14]) was 98%. For the same molecule, the Activity (Cryptosporidium parvum [15]) was “Active”.

With `CCc1nn(C)c2nc(-c3ccncc3)nc(NCc3ccc(F)cc3)c12` the EC50 (Cryptosporidium parvum [1]) was 8.6 µM and the Activity (HCT-8 [2]) was “Non-toxic”.

In the case of `CCc1nn(C)c2nc(-c3cccc(OC)c3)nc(NCc3ccc(F)cc3)c12`, the EC50 (Cryptosporidium parvum [1]) is reported as 15 µM and the Activity (HCT-8 [2]) is reported as “Non-toxic”.

`CCc1nn(C)c2nc(-c3ccc4c(O)nn(C)c4c3)nc(NCc3ccc(F)cc3)c12` was tested, and the EC50 (Cryptosporidium parvum [1]) was 3 µM and the Activity (HCT-8 [2]) was “Non-toxic”.

In the case of `CCc1nn(C)c2nc(-c3ccc(-c4nnn[nH]4)cc3)nc(NCc3ccc(F)cc3)c12`, the EC50 (Cryptosporidium parvum [1]) is reported as 5.8 µM and the Activity (HCT-8 [2]) is reported as “Non-toxic”.

For `CCc1nn(C)c2nc(-c3c(C)noc3C)nc(NCc3ccc(F)cc3)c12`, the EC50 (Cryptosporidium parvum [1]) was 4.5 µM and the Activity (HCT-8 [2]) was “Non-toxic”.

`CCc1nn(C)c2nc(-c3cccc(S(N)(=O)=O)c3)nc(NCc3ccc(F)cc3)c12` was tested, and the EC50 (Cryptosporidium parvum [1]) was 2.5 µM and the Activity (HCT-8 [2]) was “Non-toxic”.

In the case of `CCc1nn(C)c2nc(-c3ccc(C(=O)O)c(F)c3)nc(NCc3ccc(F)cc3)c12`, the EC50 (Cryptosporidium parvum [1]) is reported as 3.4 µM and the Activity (HCT-8 [2]) is reported as “Non-toxic”.

For `CCc1nn(C)c2nc(-c3ccc(CC(=O)O)cc3)nc(NCc3ccc(F)cc3)c12`, the EC50 (Cryptosporidium parvum [1]) was 9.5 µM and the Activity (HCT-8 [2]) was “Non-toxic”.

`CCc1nn(C)c2nc(-c3ccc(C(N)=O)cc3)nc(NCc3ccc(F)cc3)c12` was tested, and the EC50 (Cryptosporidium parvum [1]) was 27 µM and the Activity (HCT-8 [2]) was “Non-toxic”.

With `CCc1nn(C)c2nc(-c3cccc(C(=O)O)c3)nc(NCc3ccc(F)cc3)c12` the EC50 (Cryptosporidium parvum [1]) was 1.2 µM and the Activity (HCT-8 [2]) was “Non-toxic”.

For `CCc1nn(C)c2nc(-c3ccc(OC)cc3)nc(NCc3ccc(F)cc3)c12`, the EC50 (Cryptosporidium parvum [1]) was 15 µM and the Activity (HCT-8 [2]) was “Non-toxic”.

`CCc1nn(C)c2nc(-c3ccc4c(O)n[nH]c4c3)nc(NCc3ccc(F)cc3)c12` was tested, and the EC50 (Cryptosporidium parvum [1]) was 6.1 µM, the Activity (HCT-8 [17]) was 78% and the Activity (HCT-8 [18]) was “Toxic”. For the same molecule, the Activity (HCT-8 [19]) was 89%.

`CCc1nn(C)c2nc(-c3ccc(OC)c(OC)c3)nc(NCc3ccc(F)cc3)c12` was tested, and the EC50 (Cryptosporidium parvum [1]) was 7.2 µM and the Activity (HCT-8 [2]) was “Non-toxic”.

`CCc1nn(C)c2nc(-c3ccc(C4CCC(C(=O)O)CC4)cc3)nc(NCc3ccc(F)cc3)c12` (stereo not drawn) was tested, and the EC50 (Cryptosporidium parvum [1]) was 4.4 µM and the Activity (HCT-8 [2]) was “Non-toxic”.

`CCc1nn(C)c2nc(-c3ccc(CO)cc3)nc(NCc3ccc(F)cc3)c12` was tested, and the EC50 (Cryptosporidium parvum [1]) was 16 µM and the Activity (HCT-8 [2]) was “Non-toxic”.

For `CCc1nn(C)c2nc(-c3ccc4c(c3)OCO4)nc(NCc3ccc(F)cc3)c12`, the EC50 (Cryptosporidium parvum [1]) was greater than 50 µM and the Activity (HCT-8 [2]) was “Non-toxic”.

With `CCc1nn(C)c2nc(-c3ccc(C#N)cc3)nc(NCc3ccc(F)cc3)c12` the EC50 (Cryptosporidium parvum [1]) was greater than 25 µM and the Activity (HCT-8 [2]) was “Non-toxic”.

With `CCc1nn(C)c2nc(CCC(=O)O)nc(NCc3ccc(F)cc3)c12` the EC50 (Cryptosporidium parvum [1]) was 9.3 µM and the Activity (HCT-8 [2]) was “Non-toxic”.

With `CCOC(=O)c1ccc(-c2nc(NCc3ccc(F)cc3)c3c(CC)nn(C)c3n2)cc1` the EC50 (Cryptosporidium parvum [1]) was greater than 25 µM and the Activity (HCT-8 [2]) was “Non-toxic”.

For `CCc1nn(C)c2nc(-c3cncnc3)nc(NCc3ccc(F)cc3)c12`, the EC50 (Cryptosporidium parvum [1]) was greater than 50 µM and the Activity (HCT-8 [2]) was “Non-toxic”.

`COC(=O)[C@H](c1ccccc1Cl)N1CCc2sccc2C1` [CLOPIDOGREL] gave an IC50 (Cytochrome P450 2B6) of 0.2 µM.

`CCc1nn(C)c2nc(-c3ccc(C(=O)O)nc3)nc(NCc3ccc(F)cc3)c12` was tested, and the EC50 (Cryptosporidium parvum [1]) was 4.7 µM and the Activity (HCT-8 [2]) was “Non-toxic”.
